Test results: patent US20040157845A1, “Vanilloid receptor ligands and their use in treatments” (Amgen Inc., priority 2003, published 2004)
Where a name gives a salt, the structure may show the parent alone.

Row | melting point [°C] | SMILES
1 | 210 to 212 | CC(C)c1ccc(NC(=O)c2cnc(Cc3c(Cl)cccc3Cl)[nH]2)cc1 (as salt: hydrochloride) [Example 12, {2-[(2,6-Dichlorophenyl)methyl]imidazol-5-yl}-N-[4-(methylethyl)phenyl]-carboxamide]
2 | 253 to 254 | O=C(Nc1ccc(Br)cc1)c1cnc(Cc2c(Cl)cccc2Cl)[nH]1 (as salt: hydrochloride) [Example 13, {2-[(2,6-Dichlorophenyl)methyl]imidazol-5-yl}-N-(4-bromophenyl)carboxamide]
3 | 99 to 101 | O=C(Nc1ccc(C(F)(F)F)nc1)c1csc(Cc2ccccc2Cl)n1 [Example 1, {2-[(2-Chlorophenyl)methyl](1,3-thiazol-4-yl)}-N-[6-(trifluoromethyl)(3-pyridyl)]carboxamide]
4 | 195 to 197 | O=C(Nc1ccc(C(F)(F)F)cc1)c1csc(Nc2c(Cl)cncc2Cl)n1 [Example 2, {2-[(3,5-Dichloro(4-pyridyl))amino](1,3-thiazol-4-yl)}-N-[4-(trifluoromethyl)-phenyl]carboxamide]
5 | 216 to 218 | Cc1cccc(C)c1Nc1nc(C(=O)Nc2ccc(C(F)(F)F)cc2)cs1 [Example 3, {2-[(2,6-Dimethylphenyl)amino](1,3-thiazol-4-yl) }-N-[4-(trifluoromethyl)-phenyl]carboxamide]
6 | 250 to 251 | Cc1cccc(C)c1Nc1nc(-c2nc3cc(C(F)(F)F)ccc3[nH]2)cs1 [Example 4, (2,6-Dimethylphenyl){4-[5-(trifluoromethyl)benzimidazol-2-yl](1,3-thiazol-2-yl)}amine]
7 | 207 to 208 | FC(F)(F)c1ccc2[nH]c(-c3csc(Nc4ncccc4Cl)n3)nc2c1 [Example 6, (3-Chloro(2-pyridyl)){4-[5-(trifluoromethyl)benzimidazol-2-yl](1,3-thiazol-2-yl)}amine]
8 | 180 to 183 | Cc1nc(Cc2c(Cl)cccc2Cl)sc1C(=O)Nc1ccc(C(F)(F)F)cc1 [Example 7, {2-[(2,6-Dichlorophenyl)methyl]-4-methyl(1,3-thiazol-5-yl)}-N-[4-(trifluoromethyl)phenyl]carboxamide]
9 | 187 to 189 | FC(F)(F)c1ccc2nc(-c3csc(Cc4c(Cl)cccc4Cl)n3)[nH]c2c1 [Example 8, 2-[(2,6-Dichlorophenyl)methyl]-4-[6-(trifluoromethyl)benzimidazol-2-yl]-1,3-thiazole]
10 | 169 to 175 | CC(C)c1ccc(NC(=O)c2cnc(Cc3c(Cl)cccc3Cl)s2)cc1 [Example 9, {2-[(2,6-Dichlorophenyl)methyl](1,3-thiazol-5-yl)}-N-[4-(methylethyl)phenyl]-carboxamide]
11 | 163 to 164 | O=C(Nc1ccc(C(F)(F)F)cc1)c1cnc(Cc2c(Cl)cccc2Cl)s1 [Example 10, {2-[(2,6-Dichlorophenyl)methyl](1,3-thiazol-5-yl)}-N-[4-(trifluoromethyl)-phenyl]carboxamide]
12 | 253 to 255 | O=C(Nc1ccc(C(F)(F)F)cc1)c1cnc(Cc2c(Cl)cccc2Cl)[nH]1 [Example 11, {2-[(2,6-Dichlorophenyl)methyl]imidazol-5-yl}-N-[4-(trifluoromethyl)-phenyl]carboxamide]
13 | 151 to 162 | O=C(Nc1ccc(C(F)(F)F)cc1)c1nc(Nc2c(Cl)cccc2Cl)sc1Br [Example 14, {2-[(2,6-Dichlorophenyl)amino]-5-bromo(1,3-thiazol-4-yl)}-N-[4-(trifluoromethyl)phenyl]carboxamide]
14 | 242 to 243 | FC(F)(F)c1ccc2nc(-c3csc(Nc4c(Cl)cccc4Cl)n3)[nH]c2c1 [Example 15, (2,6-Dichloro-phenyl)-[4-(6-trifluoromethyl-1H-benzoimidazol-2-yl)-thiazol-2-yl]-amine]
15 | 113 to 116 | O=C(Nc1ccc(F)c(F)c1)c1csc(Cc2c(Cl)cccc2Cl)n1 [Example 17, {2-[(2,6-Dichlorophenyl)methyl](1,3-thiazol-4-yl)}-N-(3,4-difluorophenyl)-carboxamide]
16 | 245 to 247 | Clc1cc2nc(-c3csc(Cc4c(Cl)cccc4Cl)n3)[nH]c2cc1Cl [Example 18, 4-(5,6-Dichlorobenzimidazol-2-yl)-2-[(2,6-dichlorophenyl)methyl]-1,3-thiazole]
17 | 182 to 184 | O=C(Nc1ccc(C(F)(F)F)cc1)c1coc(Cc2c(Cl)cccc2Cl)n1 [Example 19, {2-[(2,6-Dichlorophenyl)methyl](1,3-oxazol-4-yl)}-N-[4-(trifluoromethyl)-phenyl]carboxamide]
18 | 281 to 282 | FC(F)(F)c1ccc2nc(-c3c[nH]c(Cc4c(Cl)cccc4Cl)n3)[nH]c2c1 [Example 20, 2-{2-[(2,6-Dichlorophenyl)methyl]imidazol-4-yl}-6-(trifluoromethyl)-benzimidazole]
19 | 201 to 202 | FC(F)(F)c1ccc2nc(-c3coc(Cc4c(Cl)cccc4Cl)n3)[nH]c2c1 [Example 21, 2-[(2,6-Dichlorophenyl)methyl]-4-[6-(trifluoromethyl)benzimidazol-2-yl]-1,3-oxazole]
20 | 98.8 to 106.9 | CC(=O)c1ccc(NC(=O)c2csc(Cc3c(Cl)cccc3Cl)n2)cc1 [Example 22]

Row | melting point [°C] | SMILES
21 | 137.7 to 138.8 | COc1ccc(NC(=O)c2csc(Cc3c(Cl)cccc3Cl)n2)cn1 [Example 23]
22 | 139.1 to 147.1 | O=C(Nc1ccc(C(F)(F)F)nc1)c1csc(Cc2c(Cl)cccc2Cl)n1 [Example 24]
23 | 85.4 to 92.7 | CC(C)c1ccc(NC(=O)c2csc(Cc3ccccc3Cl)n2)cc1 [Example 25]
24 | 85.5 to 94 | O=C(Nc1ccc(C(F)(F)F)cc1)c1csc(Cc2ccccc2Cl)n1 [Example 26]
25 | 104.8 to 107.7 | O=C(Nc1ccc(C(F)(F)F)nc1)c1csc(Cc2ccccc2F)n1 [Example 31]
26 | 100.8 to 101 | O=C(Nc1ccc(Br)cc1)c1csc(Cc2ccccc2F)n1 [Example 32]
27 | 109.4 to 110.6 | O=C(Nc1ccc(Br)cc1)c1csc(Cc2ccccc2Cl)n1 [Example 33]
28 | 111.8 to 112.5 | O=C(Nc1ccc(Br)cc1)c1csc(Cc2c(F)cccc2Cl)n1 [Example 34]
29 | 123.4 to 125.1 | O=C(Nc1ccc(C(F)(F)F)nc1)c1csc(Cc2c(F)cccc2Cl)n1 [Example 35]
30 | 138 to 138.4 | COc1ccccc1Cc1nc(C(=O)Nc2ccc(Br)cc2)cs1 [Example 36]
31 | 121.9 to 123.4 | Cc1ccccc1Cc1nc(C(=O)Nc2ccc(Br)cc2)cs1 [Example 37]
32 | 107.2 to 108.2 | COc1ccccc1Cc1nc(C(=O)Nc2ccc(C(F)(F)F)cc2)cs1 [Example 38]
33 | 140.2 to 141.3 | Cc1ccccc1Cc1nc(C(=O)Nc2ccc(C(F)(F)F)nc2)cs1 [Example 39]
34 | 126.6 to 132 | O=C(Nc1ccc(Br)cc1)c1csc(Cc2c(Cl)cccc2Cl)n1 [Example 40]
35 | 197 to 197.8 | O=C(Nc1ccc(C(O)(C(F)(F)F)C(F)(F)F)cc1)c1csc(Cc2c(Cl)cccc2Cl)n1 [Example 43]
36 | 95 to 96.4 | O=C(Nc1ccc(C(F)(F)C(F)(F)F)cc1)c1csc(Cc2c(Cl)cccc2Cl)n1 [Example 47]
37 | 139 to 141 | CC(C)(C)c1ccc(NC(=O)c2csc(Cc3c(Cl)cccc3Cl)n2)cc1 [Example 49]
38 | 172 to 174 | CN(C)c1ccc(NC(=O)c2csc(Cc3c(Cl)cccc3Cl)n2)cc1 [Example 50]
39 | 232.5 to 234.3 | O=C(Nc1ccc(C(F)(F)F)cc1)c1csc(Nc2cccnc2Cl)n1 [Example 51]
40 | 214.7 to 216.2 | O=C(Nc1ccc(Br)cc1)c1csc(Nc2cccnc2Cl)n1 [Example 52]

Row | melting point [°C] | SMILES
41 | 194.9 to 196.6 | O=C(Nc1ccc(Br)cc1)c1csc(Nc2c(Cl)cncc2Cl)n1 [Example 53]
42 | 158 to 160 | O=C(Nc1ccc(C(O)(C(F)(F)F)C(F)(F)F)cc1)c1csc(Nc2ccccc2F)n1 [Example 54]
43 | 198.4 to 199.7 | O=C(Nc1ccc(Br)cc1)c1csc(Nc2ccccc2F)n1 [Example 55]
44 | 125.9 to 126.9 | O=C(Nc1ccc(Br)cc1)c1csc(Nc2c(Cl)cccc2Cl)n1 [Example 56]
45 | 136.5 to 180.1 | CC(C)c1ccc(NC(=O)c2csc(Nc3ccccc3F)n2)cc1 [Example 58]
46 | 220.5 to 221.3 | O=C(Nc1ccc(Br)cc1)c1csc(Nc2ccccc2Cl)n1 [Example 60]
47 | 192.5 to 193.1 | O=C(Nc1ccc(C(F)(F)F)cc1)c1csc(Nc2ccccc2Cl)n1 [Example 61]
48 | 199 to 200 | O=C(Nc1ccc(C(F)(F)F)cc1)c1csc(Nc2c(Cl)cccc2Cl)n1 [Example 63, {2-[(2,6-dichlorophenyl)amino](1,3-thiazol-4-yl)}-N-[4-(trifluoromethyl)phenyl]-carboxamide]
49 | 128 to 133 | Cc1cccc(C)c1Nc1nc(C(=O)Nc2ccc(C(C)C)cc2)cs1 [Example 64]
50 | 208 to 209 | Cc1cccc(C)c1Nc1nc(C(=O)Nc2ccc(Br)cc2)cs1 [Example 65]
51 | 128 to 130 | O=C(Nc1ccc(C(F)(F)F)cc1)c1csc(Nc2ccccc2C(F)(F)F)n1 [Example 66]
52 | 96 to 100 | CC(C)c1ccc(NC(=O)c2csc(Nc3ccccc3C(F)(F)F)n2)cc1 [Example 67]
53 | 151 to 153 | O=C(Nc1ccc(Br)cc1)c1csc(Nc2ccccc2C(F)(F)F)n1 [Example 68]
54 | 262 to 264 | O=C(Nc1ccc(Br)cc1)c1csc(Nc2c(Cl)cccc2C(F)(F)F)n1 [Example 69]
55 | 216 to 218 | CC(C)c1ccc(NC(=O)c2csc(Nc3c(Cl)cccc3C(F)(F)F)n2)cc1 [Example 70]
56 | 243 to 244 | O=C(Nc1ccc(C(F)(F)F)cc1)c1csc(Nc2c(Cl)cccc2C(F)(F)F)n1 [Example 71]
57 | 211 to 212 | FC(F)(F)c1ccc2[nH]c(-c3csc(Nc4ccccc4C(F)(F)F)n3)nc2c1 [Example 72]
58 | 188 to 210 | FC(F)(F)c1ccc2[nH]c(-c3csc(Nc4c(Cl)cccc4C(F)(F)F)n3)nc2c1 [Example 73]
